Among the data in patent US11427553B2, “Dihydrooxadiazinones” (Bayer Aktiengesellschaft, priority 2017, dated 2022) are IC50 values, retold here.

A value given as a limit tells only on which side of the number the result lay.

One assay relates to HeLa cells. Put plainly: Assay 1 cell proliferation measurement (CTG, 72 h), HeLa. The assay is classed as cell-based, human. The note with it: Homo sapiens, HeLa; Assay 1, 72 h, Cell Titer Glo; read-out: HeLa IC50 [nM] (Cervical cancer). In outline: (§1)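 CellTiter-Glo luminescence was read at treatment start (0 h plate) and after 72 h compound exposure at 37 °C. Doses were 2.5-fold steps, ten concentrations, top 100 nM final, 0.3% DMSO. Growth inhibition was scaled between 0 h and vehicle values, and IC50 was obtained by 4-parameter fitting.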

The target of a further assay is human full length PDE3A (Homo sapiens (Human), UniProt Q14432). Put plainly: Assay 4 PDE3A enzyme inhibition (3H-cAMP SPA). As to conditions: Sf9 cell extract. It is filed as biochemical. In outline:
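In this SPA format, the 60-min room-temperature reaction used 0.025 μCi [8-3H]cAMP and diluted full-length PDE3A from Sf9 cells. Percentage activity was plotted against log compound concentration to derive IC50.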

The test system of another assay is SK-MEL-3 cells. Put plainly: Assay 1 cell proliferation measurement (CTG, 72 h), SK-MEL-3. The note with it: Homo sapiens, SK-MEL3; Assay 1, 72 h, Cell Titer Glo; read-out: SK-MEL-3 IC50 [nM] (melanoma). It is filed as cell-based, human. In outline: as §1
Background: ATP-based viability assays read luminescence as a measure of living cells.

A further assay has as its target human full length PDE3B (Homo sapiens (Human), UniProt Q13370). Put plainly: Assay 5 PDE3B enzyme inhibition (3H-cAMP SPA). It is filed as biochemical. As to conditions: Sf9 cell extract. In outline: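 Compounds in DMSO are mixed with diluted PDE3B extract from Sf9 cells, and reactions start on adding tritiated cAMP. After 60 min at room temperature, yttrium scintillation proximity beads terminate hydrolysis and signal is counted; IC50 values come from sigmoidal dose-response curves.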

human full length PDE3B, sequence (Q13370 whole entry): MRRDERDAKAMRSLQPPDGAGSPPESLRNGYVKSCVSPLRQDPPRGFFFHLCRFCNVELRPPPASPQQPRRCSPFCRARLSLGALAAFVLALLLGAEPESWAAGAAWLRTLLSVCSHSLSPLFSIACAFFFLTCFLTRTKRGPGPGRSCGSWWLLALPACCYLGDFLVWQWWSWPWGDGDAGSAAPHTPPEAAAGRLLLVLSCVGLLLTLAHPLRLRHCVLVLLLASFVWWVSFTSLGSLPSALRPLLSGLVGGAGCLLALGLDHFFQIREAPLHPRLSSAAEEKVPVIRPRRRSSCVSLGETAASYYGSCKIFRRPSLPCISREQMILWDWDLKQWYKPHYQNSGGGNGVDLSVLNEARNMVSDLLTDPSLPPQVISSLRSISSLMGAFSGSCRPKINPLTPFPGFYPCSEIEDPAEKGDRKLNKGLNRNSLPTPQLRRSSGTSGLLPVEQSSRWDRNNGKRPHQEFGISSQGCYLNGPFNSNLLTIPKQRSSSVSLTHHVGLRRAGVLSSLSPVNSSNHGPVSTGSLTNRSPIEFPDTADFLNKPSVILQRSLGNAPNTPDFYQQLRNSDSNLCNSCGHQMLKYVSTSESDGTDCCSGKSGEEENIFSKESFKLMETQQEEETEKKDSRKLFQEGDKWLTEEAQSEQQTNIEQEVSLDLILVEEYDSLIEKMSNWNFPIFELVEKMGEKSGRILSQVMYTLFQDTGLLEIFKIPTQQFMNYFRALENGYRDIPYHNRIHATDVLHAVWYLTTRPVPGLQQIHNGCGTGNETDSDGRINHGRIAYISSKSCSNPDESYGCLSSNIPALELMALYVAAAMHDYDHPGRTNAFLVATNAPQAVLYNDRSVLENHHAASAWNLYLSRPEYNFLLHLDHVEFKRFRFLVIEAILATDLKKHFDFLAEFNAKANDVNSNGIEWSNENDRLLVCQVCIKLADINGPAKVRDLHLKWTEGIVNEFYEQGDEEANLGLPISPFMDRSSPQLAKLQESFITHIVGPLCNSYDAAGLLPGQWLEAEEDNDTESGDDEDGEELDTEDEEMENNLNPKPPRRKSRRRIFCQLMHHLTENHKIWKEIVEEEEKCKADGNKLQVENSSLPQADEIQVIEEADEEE
human full length PDE3A, sequence (Q14432 whole entry): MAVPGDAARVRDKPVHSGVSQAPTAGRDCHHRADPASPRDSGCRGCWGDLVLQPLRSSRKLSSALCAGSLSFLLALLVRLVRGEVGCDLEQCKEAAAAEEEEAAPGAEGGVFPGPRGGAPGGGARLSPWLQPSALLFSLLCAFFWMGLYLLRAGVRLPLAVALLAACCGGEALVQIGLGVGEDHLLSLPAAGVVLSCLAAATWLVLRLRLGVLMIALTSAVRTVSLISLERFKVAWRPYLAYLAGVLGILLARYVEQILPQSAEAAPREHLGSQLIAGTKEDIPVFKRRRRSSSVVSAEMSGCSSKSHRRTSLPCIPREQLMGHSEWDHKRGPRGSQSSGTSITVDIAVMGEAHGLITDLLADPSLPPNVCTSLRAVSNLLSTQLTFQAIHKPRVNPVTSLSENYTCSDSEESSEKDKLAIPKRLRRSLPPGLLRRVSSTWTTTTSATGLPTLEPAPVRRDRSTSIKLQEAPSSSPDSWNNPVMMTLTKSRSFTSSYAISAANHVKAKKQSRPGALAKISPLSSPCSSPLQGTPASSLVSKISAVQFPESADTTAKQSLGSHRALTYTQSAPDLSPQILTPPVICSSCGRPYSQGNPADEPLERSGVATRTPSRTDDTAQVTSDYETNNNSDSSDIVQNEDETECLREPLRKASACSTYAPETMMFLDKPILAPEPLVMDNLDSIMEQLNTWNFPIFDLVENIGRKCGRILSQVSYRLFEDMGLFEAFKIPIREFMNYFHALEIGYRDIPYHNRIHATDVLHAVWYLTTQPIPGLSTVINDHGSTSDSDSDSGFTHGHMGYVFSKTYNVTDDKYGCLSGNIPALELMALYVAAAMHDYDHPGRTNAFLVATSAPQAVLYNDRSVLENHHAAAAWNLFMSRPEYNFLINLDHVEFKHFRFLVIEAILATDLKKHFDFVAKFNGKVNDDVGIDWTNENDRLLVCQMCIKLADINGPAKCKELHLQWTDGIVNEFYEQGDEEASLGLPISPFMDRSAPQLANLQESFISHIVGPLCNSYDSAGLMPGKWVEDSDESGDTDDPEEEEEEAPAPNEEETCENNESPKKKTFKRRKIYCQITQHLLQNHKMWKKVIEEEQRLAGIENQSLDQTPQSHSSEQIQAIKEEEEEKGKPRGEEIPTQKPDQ

As a reminder, the IC50 is the concentration that gives 50% inhibition. On to `C[C@@H]1OC(=O)NN=C1c1ccc(-c2ccc(F)cc2F)c(C(F)(F)F)c1` [Example 177, (6S)-5-[2′,4′-Difluoro-2-(trifluoromethyl)[1,1′-biphenyl]-4-yl]-6-methyl-3,6-dihydro-2H-1,3,4-oxadiazin-2-one], for which the IC50 was 12 nM with HeLa cells, 160 nM on human full length PDE3A, 17 nM with SK-MEL-3 cells and 130 nM against human full length PDE3B.
In the case of `C[C@@H]1OC(=O)NN=C1c1ccc(-c2cccc(F)c2)c(C(F)(F)F)c1` [Example 181, (6S)-5-[3′-Fluoro-2-(trifluoromethyl)[1,1′-biphenyl]-4-yl]-6-methyl-3,6-dihydro-2H-1,3,4-oxadiazin-2-one], the IC50 is 3 nM in the assay on HeLa cells, 74 nM at human full length PDE3A, 6 nM in the assay with SK-MEL-3 cells and 77 nM on human full length PDE3B.
The like results for `Cc1cc(C2=NNC(=O)OC2)ccc1-c1cccc(F)c1` [Example 15, 5-(3′-Fluoro-2-methylbiphenyl-4-yl)-3,6-dihydro-2H-1,3,4-oxadiazin-2-one] were, in that order, 8 nM, 110 nM, 16 nM and 110 nM.
The like results for `Cc1ncc(-c2ccc(C3=NNC(=O)OC3)cc2C(F)(F)F)s1` [Example 54, 5-[4-(2-Methyl-1,3-thiazol-5-yl)-3-(trifluoromethyl)phenyl]-3,6-dihydro-2H-1,3,4-oxadiazin-2-one] were, in that order, 1 nM, 100 nM, 3 nM and 89 nM.
The like results for `N#Cc1cc(C2=NNC(=O)OC2)ccc1N1CCOCC1` [Example 22, 2-(Morpholin-4-yl)-5-(2-oxo-3,6-dihydro-2H-1,3,4-oxadiazin-5-yl)benzonitrile] were, in that order, 26 nM, 52 nM, 51 nM and 33 nM.
As for `Cc1ccc(-c2ccc(C3=NNC(=O)OC3)cc2F)c(C)c1` [Example 112, 5-(2-Fluoro-2′,4′-dimethyl[1,1′-biphenyl]-4-yl)-3,6-dihydro-2H-1,3,4-oxadiazin-2-one], the IC50 in the assay on HeLa cells worked out at 6 nM; against human full length PDE3A, 170 nM; with SK-MEL-3 cells, 10 nM; at human full length PDE3B, 230 nM.
For `CC1CC(C)N1c1ccc(C2=NNC(=O)OC2)cc1C(F)(F)F` (racemic) [Example 207, (rac)-5-{4-[2,4-Dimethylazetidin-1-yl]-3-(trifluoromethyl)phenyl}-3,6-dihydro-2H-1,3,4-oxadiazin-2-one] the same measures were 9 nM, 74 nM, 14 nM and 180 nM.
For `Cc1ccc(-c2ccc(C3=NNC(=O)OC3)cc2C(F)(F)F)cc1O` [Example 35, 5-[3′-Hydroxy-4′-methyl-2-(trifluoromethyl)biphenyl-4-yl]-3,6-dihydro-2H-1,3,4-oxadiazin-2-one] the same measures were 39 nM, 79 nM, 25 nM and 75 nM.
The like results for `CCNc1ccc(C2=NNC(=O)OC2)cc1C(F)(F)F` [Example 67, 5-[4-(Ethylamino)-3-(trifluoromethyl)phenyl]-3,6-dihydro-2H-1,3,4-oxadiazin-2-one] were, in that order, 3 nM, 47 nM, 5 nM and 63 nM.
`CCc1ccccc1-c1ccc(C2=NNC(=O)OC2)cc1F` [Example 84, 5-(2′-Ethyl-2-fluorobiphenyl-4-yl)-3,6-dihydro-2H-1,3,4-oxadiazin-2-one]: the IC50 came to 19 nM in the assay on HeLa cells, 150 nM against human full length PDE3A, 48 nM with SK-MEL-3 cells and 320 nM at human full length PDE3B.
For `COc1ccccc1-c1ccc(C2=NNC(=O)O[C@H]2C)cc1C(F)(F)F` [Example 180, (6S)-5-[2′-Methoxy-2-(trifluoromethyl)[1,1′-biphenyl]-4-yl]-6-methyl-3,6-dihydro-2H-1,3,4-oxadiazin-2-one] the same measures were 36 nM, 250 nM, 48 nM and 250 nM.
Take `O=C1NN=C(c2ccc(-c3ccc4cc[nH]c4c3)c(C(F)(F)F)c2)CO1` [Example 62, 5-[4-(1H-Indol-6-yl)-3-(trifluoromethyl)phenyl]-3,6-dihydro-2H-1,3,4-oxadiazin-2-one]: the IC50 in the assay on HeLa cells is 6 nM; at human full length PDE3A it was 85 nM; in the assay with SK-MEL-3 cells, 14 nM; against human full length PDE3B, 180 nM.
As to `O=C1NN=C(c2ccc(-c3ccccc3F)c(F)c2)CO1` [Example 114, 5-(2,2′-Difluoro[1,1′-biphenyl]-4-yl)-3,6-dihydro-2H-1,3,4-oxadiazin-2-one], the IC50 in the assay with HeLa cells turned out to be 4 nM; on human full length PDE3A, 92 nM; in the assay with SK-MEL-3 cells it was 7 nM; on human full length PDE3B, 100 nM.
The like results for `Nc1ccc(-c2ccc(C3=NNC(=O)OC3)cc2C(F)(F)F)cc1` [Example 34, 5-[4′-Amino-2-(trifluoromethyl)biphenyl-4-yl]-3,6-dihydro-2H-1,3,4-oxadiazin-2-one] were, in that order, 3 nM, 100 nM, 765 nM and 100 nM.
The like results for `COc1ccc(-c2ccc(C3=NNC(=O)O[C@H]3C)cc2C(F)(F)F)cc1` [Example 188, (6S)-5-[4′-Methoxy-2-(trifluoromethyl)[1,1′-biphenyl]-4-yl]-6-methyl-3,6-dihydro-2H-1,3,4-oxadiazin-2-one] were, in that order, 22 nM, 90 nM, 38 nM and 100 nM.
The like results for `Nc1cccc(-c2ccc(C3=NNC(=O)OC3)cc2F)c1` [Example 91, 5-[4-(3-Aminophenyl)-3-fluoro-phenyl]-3,6-dihydro-1,3,4-oxadiazin-2-one] were, in that order, 14 nM, 68 nM, 17 nM and 85 nM.
In the case of `O=C1NN=C(c2ccc(C3=CCCOC3)c(C(F)(F)F)c2)CO1` [Example 142, 5-[4-(5,6-dihydro-2H-pyran-3-yl)-3-(trifluoromethyl)phenyl]-3,6-dihydro-2H-1,3,4-oxadiazin-2-one], the half-inhibitory concentration (IC50) in the assay with HeLa cells is 3 nM; against human full length PDE3A, 25 nM; in the assay with SK-MEL-3 cells, 4 nM; against human full length PDE3B it was 47 nM.
With `CC1OC(=O)NN=C1c1ccc(N2CCOCC2)cc1` (racemic) [Example 20, (rac)-6-Methyl-5-[4-(morpholin-4-yl)phenyl]-3,6-dihydro-2H-1,3,4-oxadiazin-2-one], the IC50 worked out at 15 nM with HeLa cells, 200 nM on human full length PDE3A, 41 nM in the assay with SK-MEL-3 cells and 100 nM on human full length PDE3B.
For `O=C1NN=C(c2ccc(NCC3CC3)c(C(F)(F)F)c2)CO1` [Example 212, 5-{4-[(Cyclopropylmethyl)amino]-3-(trifluoromethyl)phenyl}-3,6-dihydro-2H-1,3,4-oxadiazin-2-one] the same measures were 1 nM, 26 nM, 2 nM and 24 nM.
The like results for `CC(C)CCNc1ccc(C2=NNC(=O)OC2)cc1C(F)(F)F` [Example 220, 5-{4-[(3-Methylbutyl)amino]-3-(trifluoromethyl)phenyl}-3,6-dihydro-2H-1,3,4-oxadiazin-2-one] were, in that order, 6 nM, 90 nM, 14 nM and 131 nM.
The like results for `CC1CN(c2c(F)cc(C3=NNC(=O)OC3C)cc2F)CCO1` (stereo not drawn) [Example 18, 5-{3,5-Difluoro-4-[2-methylmorpholin-4-yl]phenyl}-6-methyl-3,6-dihydro-2H-1,3,4-oxadiazin-2-one] were, in that order, 18 nM, 450 nM, 74 nM and 220 nM.
Consider `O=C1NN=C(c2ccc(-c3cccnc3)c(C(F)(F)F)c2)CO1` [Example 33, 5-[4-(Pyridin-3-yl)-3-(trifluoromethyl)phenyl]-3,6-dihydro-2H-1,3,4-oxadiazin-2-one], for which the IC50 in the assay on HeLa cells stood at 6 nM; on human full length PDE3A it was 65 nM; with SK-MEL-3 cells it was 10 nM; at human full length PDE3B, 80 nM.
As to `O=C1NN=C(c2ccc(-c3cccnc3)c(F)c2)CO1` [Example 108, 5-[3-Fluoro-4-(pyridin-3-yl)phenyl]-3,6-dihydro-2H-1,3,4-oxadiazin-2-one], the IC50 with HeLa cells is 6 nM; at human full length PDE3A it was 26 nM; in the assay on SK-MEL-3 cells, 13 nM; at human full length PDE3B, 22 nM.
The like results for `O=C1NN=C(c2ccc(-c3ccc(C(F)(F)F)cc3)c(C(F)(F)F)c2)CO1` [Example 51, 5-[2,4′-Bis(trifluoromethyl)biphenyl-4-yl]-3,6-dihydro-2H-1,3,4-oxadiazin-2-one] were, in that order, 30 nM, over 1000 nM, 49 nM and over 1000 nM.
